# From patent US8969357B2, “Methods for treating HCV” (AbbVie Inc., priority 2011, dated 2015)
# How the values were obtained:
# 1a-H77 replicons = assay: Predominant resistant variants selected in genotype 1a replicons; format: cell-based, HCV
# Experimental: (§1) Predominant resistant variants selected by Compound 1, 2, or 4 in genotype 1 replicons were also determined. For Compound 1, the predominant resistance variants in 1a-H77 replicons include R155K, D168A and D168V with fold resistance of 26, 48 and 128, respectively; and the predominant resistance variants in 1b-Con1 replicons include R155K, A156T and D168V with fold resistance of 48, 9 and 190, respectively. For Compound 2, the predominant resistance variants in 1a-H77 replicons include C316Y, M414T, Y448C and S556G with fold resistance of 1600, 36, 980 and 15, respectively; and the predominant resistance variants in 1b-Con1 replicons include C316Y, M414T and D559G with fold resistance of 1400, 26 and 100, respectively. For Compound 4, the predominant resistance variants in 1a-H77 replicons include M28T, M28V, Q30R, Y93C and Y93H with fold resistance of 9000, 60, 800, 1700 and 41000, respectively; and the predominant resistance variants in 1b-Con1 replicons include Y93H with fold resistance of 55.
# 1b-Con1 replicons = assay: Predominant resistant variants selected in genotype 1b replicons; format: cell-based, HCV
# Experimental: as §1
smiles,measurement,setting,value
"Cc1cnc(C(=O)N[C@H]2CCCCC/C=C\[C@@H]3C[C@@]3(C(=O)NS(=O)(=O)C3CC3)NC(=O)[C@@H]3C[C@@H](Oc4nc5ccccc5c5ccccc45)CN3C2=O)cn1 [Compound 1, (2R,6S,13aS,14aR,16aS,Z)—N-(cyclopropylsulfonyl)-6-(5-methylpyrazine-2-carboxamido)-5,16-dioxo-2-(phenanthridin-6-yloxy)-1,2,3,5,6,7,8,9,10,11,13a,14,14a,15,16,16a-hexadecahydrocyclopropa[e]pyrrolo[1,2-a][1,4]diazacyclopentadecine-14a-carboxamide]",fold resistance,1a-H77 replicons; variant D168A,48 fold
same,fold resistance,1a-H77 replicons; variant D168V,128 fold
same,fold resistance,1a-H77 replicons; variant R155K,26 fold
same,fold resistance,1b-Con1 replicons; variant A156T,9 fold
same,fold resistance,1b-Con1 replicons; variant D168V,190 fold
same,fold resistance,1b-Con1 replicons; variant R155K,48 fold
"COc1c(-c2ccc3cc(NS(C)(=O)=O)ccc3c2)cc(-n2ccc(=O)[nH]c2=O)cc1C(C)(C)C [Compound 2, N-(6-(3-tert-butyl-5-(2,4-dioxo-3,4-dihydropyrimidin-1(2H)-yl)-2-methoxyphenyl)naphthalen-2-yl)methanesulfonamide]",fold resistance,1a-H77 replicons; variant C316Y,1600 fold
same,fold resistance,1a-H77 replicons; variant M414T,36 fold
same,fold resistance,1a-H77 replicons; variant S556G,15 fold
same,fold resistance,1a-H77 replicons; variant Y448C,980 fold
same,fold resistance,1b-Con1 replicons; variant C316Y,1400 fold
same,fold resistance,1b-Con1 replicons; variant D559G,100 fold
same,fold resistance,1b-Con1 replicons; variant M414T,26 fold
"COC(=O)N[C@H](C(=O)N1CCC[C@H]1C(=O)Nc1ccc([C@@H]2CC[C@@H](c3ccc(NC(=O)[C@@H]4CCCN4C(=O)[C@@H](NC(=O)OC)C(C)C)cc3)N2c2ccc(C(C)(C)C)cc2)cc1)C(C)C [Compound 4, dimethyl (2S,2′S)-1,1′-((2S,2′S)-2,2′-(4,4′-(2S,5S)-1-(4-tert-butylphenyl)pyrrolidine-2,5,diyl)bis(4,1-phenylene))bis(azanediyl)bis(oxomethylene)bis(pyrrolidine-2,1-diyl)bis(3-methyl-1-oxobutane-2,1-diyl)dicarbamate]",fold resistance,1a-H77 replicons; variant M28T,9000 fold
same,fold resistance,1a-H77 replicons; variant M28V,60 fold
same,fold resistance,1a-H77 replicons; variant Q30R,800 fold
same,fold resistance,1a-H77 replicons; variant Y93C,1700 fold
same,fold resistance,1a-H77 replicons; variant Y93H,41000 fold
same,fold resistance,1b-Con1 replicons; variant Y93H,55 fold
